Values quoted from earlier work as cited in patent publication US20090252757A1, “METHODS AND COMPOSITIONS FOR INHIBITING HIV INFECTION” (IRM LLC, priority 2005, published 2009).

Target: MLK3 (Homo sapiens, UniProt Q16584)
Settings: Roux et al., J. Biol. Chem. 277:49473-80, 2002

Sequence of MLK3 (Q16584 whole entry): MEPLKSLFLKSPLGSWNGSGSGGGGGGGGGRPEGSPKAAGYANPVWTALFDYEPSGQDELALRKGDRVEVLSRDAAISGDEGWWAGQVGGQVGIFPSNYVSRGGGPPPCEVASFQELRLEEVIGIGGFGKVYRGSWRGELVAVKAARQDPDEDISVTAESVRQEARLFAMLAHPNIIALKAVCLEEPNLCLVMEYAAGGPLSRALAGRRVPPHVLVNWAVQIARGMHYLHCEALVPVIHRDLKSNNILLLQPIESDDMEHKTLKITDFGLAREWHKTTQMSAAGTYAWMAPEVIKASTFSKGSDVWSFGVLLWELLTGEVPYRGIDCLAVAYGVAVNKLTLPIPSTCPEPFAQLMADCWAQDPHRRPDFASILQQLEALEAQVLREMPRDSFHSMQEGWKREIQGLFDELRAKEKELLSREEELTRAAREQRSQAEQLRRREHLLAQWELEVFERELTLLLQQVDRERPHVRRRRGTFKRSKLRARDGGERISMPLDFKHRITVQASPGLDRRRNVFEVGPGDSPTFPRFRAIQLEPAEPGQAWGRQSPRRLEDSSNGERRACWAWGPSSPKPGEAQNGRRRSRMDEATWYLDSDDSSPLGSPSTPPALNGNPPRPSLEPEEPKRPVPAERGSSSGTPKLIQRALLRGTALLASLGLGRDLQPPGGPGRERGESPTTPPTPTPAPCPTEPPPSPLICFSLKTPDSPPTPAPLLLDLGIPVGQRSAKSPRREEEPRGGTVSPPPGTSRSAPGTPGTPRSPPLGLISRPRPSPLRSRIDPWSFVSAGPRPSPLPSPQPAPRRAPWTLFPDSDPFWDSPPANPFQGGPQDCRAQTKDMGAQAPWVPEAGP

inhibition of MLK3 kinase activity: inhibit the kinase activity of MLK3
SMILES: CCSCc1ccc2c(c1)c1c3c(c4c5cc(CSCC)ccc5n5c4c1n2[C@H]1C[C@](O)(C(=O)OC)[C@]5(C)O1)CNC3=O [CEP1347]
